Measured values taken from US20080032896A1, “Methods for identifying compounds that bind to a target” (priority 1995, published 2008).

Key:
[1] = system: anti-FGF monoclonal antibody; assay: FGF binding assay: inhibition of radiolabeled FGF binding to biotinylated anti-FGF antibody; set-up: species or system mouse
Method: FIG. 1 is a graph depicting the ability of compounds PPI-432, PPI-652 and PPI-654 to inhibit the binding of radiolabeled FGF to an anti-FGF antibody.
The activities of the libraries were tested using an FGF binding assay. […] Since Libraries I and II are highly diverse, the active non-peptide compounds should have a spectrum of potencies which cumulatively yield the average potency seen in the library.
The eluted non-peptide compounds were brought to dryness under vacuum. Recovered non-peptide compounds were dissolved in 50 μl water and tested for their ability to block the interaction of bFGF with the target protein. (Assuming 100% recovery of non-peptide compounds and 100% binding to bivalent antibody, the amount of recovered non-peptide compounds was calculated to be 200 ng).
Several of the non-peptide compounds selected from the combinatorial library were made synthetically and compared to the starting peptide (PPI-432) for their ability to bind to the target protein. The compounds were synthesized with an amino-terminal acetyl group and a carboxy-terminal amide. The potency of two non-peptide compounds (PPI-652 and PPI-654, shown in Table 2), containing modified amino acids at positions 5 and 7, were compared to the starting peptide PPI-432 in their ability to inhibit radiolabeled FGF binding to biotinylated anti-FGF antibody. […]

[2] = system: monoclonal antibody to bFGF; assay: Competitive binding: blocking of phage binding to the anti-bFGF antibody; set-up: species or system mouse; settings: phage containing the sequence P-R-G-H-W-K-Q (SEQ ID NO: 9); competitive binding experiments
Method: A monoclonal antibody raised against human basic FGF (bFGF) was used as a biopanning target using a 7-mer peptide library in a bacteriophage M13 vector. To prepare the biopanning plates, four wells of an Immulon4 microtiter plate (Dynatech) were coated with stepavidin (1 μg/well) in 100 mM NaHCO3, pH 9.5, for 2 hours at room temperature or overnight at 4° C. The strepavidin-coated wells were washed three times with phosphate-buffered saline (PBS). To each well containing strepavidin, biotinylated rat anti mouse antibody K light chain (PharMingen) was added, at 1 μg/well, in PBS for 30 minutes to 1 hour at room temperature. The wells were then washed again with PBS three times. Non-specific binding sites were blocked with 300 μl/well PBS, 1% dry milk for 1 hour at room temperature. The wells were then washed with PBS, 0.1% dry milk three times, loaded with 50 μl/well PBS, 0.1% dry milk and stored at 4° C. […]
After the 2 hour room temperature incubation of the phage with the antibody, the PBS, 0.1% milk buffer was removed from the wells of the strepavidin/biotinylated α-mouse complex plates and the corresponding 100 μl of each tube containing the antibody/phage mixture was added to each of the four wells. […] The phage eluant was titered and the fractional yield determined. […]

Substance: P-P-G-H-F-K-D (PPGHFKD) [PPI-432]
- blocking of the binding of bFGF to the antibody [1]: blocked

Substance: G-A-F-P-P-G-H-F-K-D-P-D-R-L (GAFPPGHFKDPDRL) [PPI-416]
- blocking of the binding of bFGF to the antibody [1]: blocked
- blocking of phage binding to the antibody [2]: blocked
